Results published in PubChem BioAssay (NCI).
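Briefly, cells in 96-well plates were exposed to five compound concentrations for 48 h, and endpoints were estimated by linear interpolation. GI50 = concentration required for 50% inhibition of growth. TGI denotes the concentration required for complete inhibition of growth.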

Assays:
Test in all cases: inhibition of tumour cell growth, NCI panel, 48 h
MALME-3M melanoma = system: MALME-3M melanoma
A549 NSCLC = system: A549 NSCLC
BT-549 breast = system: BT-549 breast
UO-31 renal = system: UO-31 renal
PC-3 prostate = system: PC-3 prostate
SR leukemia = system: SR leukemia
A498 renal = system: A498 renal
MDA-MB-435 = system: MDA-MB-435
HOP-62 NSCLC = system: HOP-62 NSCLC
786-0 renal = system: 786-0 renal
K-562 leukemia = system: K-562 leukemia
T-47D breast = system: T-47D breast
M14 melanoma = system: M14 melanoma
RPMI-8226 leukemia = system: RPMI-8226 leukemia
NCI/ADR-RES ovarian = system: NCI/ADR-RES ovarian
MOLT-4 leukemia = system: MOLT-4 leukemia
OVCAR-4 ovarian = system: OVCAR-4 ovarian
SNB-19 CNS = system: SNB-19 CNS
SF-539 CNS = system: SF-539 CNS
HCT-15 colon = system: HCT-15 colon
OVCAR-3 ovarian = system: OVCAR-3 ovarian
SN12C renal = system: SN12C renal
U251 CNS = system: U251 CNS
NCI-H23 lung = system: NCI-H23 lung
NCI-H522 lung = system: NCI-H522 lung
SF-295 CNS = system: SF-295 CNS
NCI-H460 lung = system: NCI-H460 lung
NCI-H226 lung = system: NCI-H226 lung
SK-MEL-5 melanoma = system: SK-MEL-5 melanoma
CAKI-1 renal = system: CAKI-1 renal
IGROV1 ovarian = system: IGROV1 ovarian
RXF 393 renal = system: RXF 393 renal
HL-60(TB) leukemia = system: HL-60(TB) leukemia
UACC-257 melanoma = system: UACC-257 melanoma
OVCAR-5 ovarian = system: OVCAR-5 ovarian
SK-MEL-2 melanoma = system: SK-MEL-2 melanoma
CCRF-CEM leukemia = system: CCRF-CEM leukemia
SK-OV-3 ovarian = system: SK-OV-3 ovarian
MDA-MB-231 breast = system: MDA-MB-231 breast
HS 578T breast = system: HS 578T breast
OVCAR-8 ovarian = system: OVCAR-8 ovarian
TK-10 renal = system: TK-10 renal
HCC-2998 colon = system: HCC-2998 colon
KM12 colon = system: KM12 colon
SK-MEL-28 melanoma = system: SK-MEL-28 melanoma
HT29 colon = system: HT29 colon
HOP-92 NSCLC = system: HOP-92 NSCLC
SF-268 CNS = system: SF-268 CNS
SW-620 colon = system: SW-620 colon
SNB-75 CNS = system: SNB-75 CNS
HCT-116 colon = system: HCT-116 colon
ACHN renal = system: ACHN renal
UACC-62 melanoma = system: UACC-62 melanoma
DU-145 prostate = system: DU-145 prostate
MCF7 breast = system: MCF7 breast
LOX IMVI melanoma = system: LOX IMVI melanoma
EKVX NSCLC = system: EKVX NSCLC

N#CN1CCC[C@H]1C(=O)N1CCc2c(-c3[nH]nc4ncccc34)cccc21 showed a GI50 (MALME-3M melanoma) of 27.9 nM, a TGI (MALME-3M melanoma) of 16.7 µM and a GI50 (A549 NSCLC) of 106 nM. For the same compound, the TGI (A549 NSCLC) was greater than 25.1 µM, the GI50 (BT-549 breast) was less than 10 nM and the TGI (BT-549 breast) was 99.3 nM. The GI50 (UO-31 renal) was 43.1 nM, the TGI (UO-31 renal) was 5.11 µM and the GI50 (PC-3 prostate) was less than 10 nM. For the same compound, the TGI (PC-3 prostate) was 23.6 µM, the GI50 (SR leukemia) was less than 10 nM and the TGI (SR leukemia) was 20 µM. It also gave a GI50 (A498 renal) of less than 11.4 nM, a TGI (A498 renal) of 148 nM and a GI50 (MDA-MB-435) of less than 10 nM. For the same compound, the TGI (MDA-MB-435) was less than 10 nM, the GI50 (HOP-62 NSCLC) was 22.2 nM and the TGI (HOP-62 NSCLC) was 10.6 µM. It also gave a GI50 (786-0 renal) of less than 10 nM, a TGI (786-0 renal) of 11.5 µM and a GI50 (K-562 leukemia) of less than 10 nM. The TGI (K-562 leukemia) was greater than 37.8 µM, the GI50 (T-47D breast) was 22.7 nM and the TGI (T-47D breast) was 15 µM. It also gave a GI50 (M14 melanoma) of less than 10 nM, a TGI (M14 melanoma) of 354 nM and a GI50 (RPMI-8226 leukemia) of less than 10 nM. For the same compound, the TGI (RPMI-8226 leukemia) was 7.47 µM, the GI50 (NCI/ADR-RES ovarian) was 10.3 nM and the TGI (NCI/ADR-RES ovarian) was greater than 31.7 µM. It also gave a GI50 (MOLT-4 leukemia) of less than 10 nM, a TGI (MOLT-4 leukemia) of 11 µM and a GI50 (OVCAR-4 ovarian) of less than 10 nM. It also gave a TGI (OVCAR-4 ovarian) of 13.3 µM, a GI50 (SNB-19 CNS) of 157 nM and a TGI (SNB-19 CNS) of 21.5 µM. It also gave a GI50 (SF-539 CNS) of less than 10 nM, a TGI (SF-539 CNS) of less than 10 nM and a GI50 (HCT-15 colon) of less than 10 nM. The TGI (HCT-15 colon) was 11.3 µM, the GI50 (OVCAR-3 ovarian) was less than 10 nM and the TGI (OVCAR-3 ovarian) was less than 10 nM. For the same compound, the GI50 (SN12C renal) was less than 10 nM, the TGI (SN12C renal) was 48.2 µM and the GI50 (U251 CNS) was 281 nM. The TGI (U251 CNS) was 2910 nM, the GI50 (NCI-H23 lung) was less than 10 nM and the TGI (NCI-H23 lung) was 17.3 µM. The GI50 (NCI-H522 lung) was less than 10 nM, the TGI (NCI-H522 lung) was 412 nM and the GI50 (SF-295 CNS) was 281 nM. The TGI (SF-295 CNS) was 4.41 µM, the GI50 (NCI-H460 lung) was 105 nM and the TGI (NCI-H460 lung) was 11.1 µM. It also gave a GI50 (NCI-H226 lung) of 51 nM, a TGI (NCI-H226 lung) of 219 nM and a GI50 (SK-MEL-5 melanoma) of 60.6 nM. For the same compound, the TGI (SK-MEL-5 melanoma) was 126 nM, the GI50 (CAKI-1 renal) was less than 10 nM and the TGI (CAKI-1 renal) was 1460 nM. The GI50 (IGROV1 ovarian) was 86.2 nM, the TGI (IGROV1 ovarian) was 12.6 µM and the GI50 (RXF 393 renal) was less than 10 nM. For the same compound, the TGI (RXF 393 renal) was 145 nM, the GI50 (HL-60(TB) leukemia) was less than 10 nM and the TGI (HL-60(TB) leukemia) was less than 10 nM. The GI50 (UACC-257 melanoma) was less than 10 nM, the TGI (UACC-257 melanoma) was 14.5 µM and the GI50 (OVCAR-5 ovarian) was less than 15.6 nM. The TGI (OVCAR-5 ovarian) was 17.4 µM, the GI50 (SK-MEL-2 melanoma) was less than 10 nM and the TGI (SK-MEL-2 melanoma) was 18.2 µM. For the same compound, the GI50 (CCRF-CEM leukemia) was less than 10 nM, the TGI (CCRF-CEM leukemia) was 28.4 µM and the GI50 (SK-OV-3 ovarian) was 13 nM. The TGI (SK-OV-3 ovarian) was 69.4 nM, the GI50 (MDA-MB-231 breast) was less than 10 nM and the TGI (MDA-MB-231 breast) was 177 nM. It also gave a GI50 (HS 578T breast) of 239 nM, a TGI (HS 578T breast) greater than 100 µM and a GI50 (OVCAR-8 ovarian) of less than 10 nM. It also gave a TGI (OVCAR-8 ovarian) of 11 µM, a GI50 (TK-10 renal) of 525 nM and a TGI (TK-10 renal) of 4.17 µM. It also gave a GI50 (HCC-2998 colon) of 120 nM, a TGI (HCC-2998 colon) of 11.6 µM and a GI50 (KM12 colon) of less than 10 nM. For the same compound, the TGI (KM12 colon) was 10.1 µM, the GI50 (SK-MEL-28 melanoma) was less than 10 nM and the TGI (SK-MEL-28 melanoma) was 13.9 µM. The GI50 (HT29 colon) was less than 10 nM, the TGI (HT29 colon) was 12.9 nM and the GI50 (HOP-92 NSCLC) was less than 10 nM. It also gave a TGI (HOP-92 NSCLC) of 80.9 nM, a GI50 (SF-268 CNS) of less than 10 nM and a TGI (SF-268 CNS) of 13.2 µM. The GI50 (SW-620 colon) was less than 10 nM, the TGI (SW-620 colon) was 13.5 µM and the GI50 (SNB-75 CNS) was 211 nM. It also gave a TGI (SNB-75 CNS) of 2780 nM, a GI50 (HCT-116 colon) of less than 10 nM and a TGI (HCT-116 colon) of 8.14 µM. The GI50 (ACHN renal) was less than 10 nM, the TGI (ACHN renal) was 7.89 µM and the GI50 (UACC-62 melanoma) was less than 10 nM. The TGI (UACC-62 melanoma) was 12.2 µM, the GI50 (DU-145 prostate) was 18 nM and the TGI (DU-145 prostate) was 11.3 µM. The GI50 (MCF7 breast) was less than 10 nM, the TGI (MCF7 breast) was 11 µM and the GI50 (LOX IMVI melanoma) was less than 10 nM. It also gave a TGI (LOX IMVI melanoma) of 10.6 µM, a GI50 (EKVX NSCLC) of 101 nM and a TGI (EKVX NSCLC) of 25 µM.
